Results reported in US20220160617A1, “COMPOSITIONS AND METHODS FOR IMPROVING SKIN HEALTH AND FOR THE TREATMENT AND PREVENTION OF DISEASES, DISORDERS AND CONDITIONS ASSOCIATED WITH PATHOGENIC MICROBES” (DermBiont, Inc., priority 2019, published 2022).
≈ marks a conversion by molar mass, not a printed value. Read-outs that look alike come from different tables or passages of the source.

Assays:
[1] = system: Janthinobacterium lividum strains; assay: Antibiotic MIC tests, sensitivity summary; format: cell-based
Protocol: (§1) The antibiotic resistance profile and MICs tests were performed using Janthinobacterium lividum grown from cultures purified and grown in vegitone LB broth.

[2] = system: E. Coli ATCC25922; details: cited from earlier work
[3] = system: Janthinobacterium lividum DB00121; assay: Antibiotic MIC test; format: cell-based
Protocol: as §1

[4] = system: Janthinobacterium lividum DB02378; assay: Antibiotic MIC test; format: cell-based
Protocol: as §1

[5] = system: Janthinobacterium lividum DB02473; assay: Antibiotic MIC test; format: cell-based
Protocol: as §1

[6] = system: Janthinobacterium lividum strains; assay: Internal antibiotic resistance test (BD BBL Sensi-Disc zone of inhibition); format: cell-based; details: all 5 strains; disc content per antibiotic
Protocol: One Janthinobacterium lividum colony of 3-day old grown in 50% BHI agar was mixed well in 1 ml of 1×PBS buffer, diluted 10× and 100×, respectively. 200 μl of diluted Janthinobacterium lividum cells were evenly plated onto R2A/BHI agar plates in triplicate in 150 mm petri dishes. Antibiotic discs (BD BBL Sensi-Disc antimicrobial susceptibility test discs) were dispensed using a Disc dispenser (BD BBL Sensi-Disc Designer Dispenser System, 12-Place). Plates were incubated for 2-3 days at room temperature and imaged at the end of incubation.
The sensitivity of Janthinobacterium lividum to antibiotics is reflected by a clear zone of inhibition of Janthinobacterium lividum cells surrounding the antibiotic discs. The zone of inhibition was measured using ImageJ and was transformed into cm for analysis.

[7] = system: E. Coli ATCC25922; assay: Antibiotic MIC test; format: cell-based
[8] = system: Janthinobacterium lividum (DBI001); assay: Biolog Phenotype MicroArray: components enhancing growth of Janthinobacterium in media; format: cell-based
[9] = system: Janthinobacterium lividum DB00118; assay: Antibiotic MIC test; format: cell-based
Protocol: as §1

[10] = system: fungal or bacterial pathogens; format: cell-based; details: components for enhancing function of human-derived Janthinobacterium lividum
[11] = Janthinobacterium lividum, DB00121
[12] = Janthinobacterium lividum, DB02378

For `C[C@H]1[C@H](NC(=O)/C(=N\OC(C)(C)C(=O)O)c2csc(N)n2)C(=O)N1S(=O)(=O)O` [Aztreonam], the “sensitivity of Janthinobacterium lividum strains to antibiotic” value [1] is given as “less sensitive” and the “MIC, CLSI QC ranges” value [2] is given as 0.06 to 0.25 µg/mL.
For `CO/N=C(\C(=O)N[C@@H]1C(=O)N2C(C(=O)[O-])=C(C[N+]3(C)CCCC3)CS[C@H]12)c1csc(N)n1` [Cefepime], the “MIC, CLSI QC ranges” value [2] is given as 0.016 to 0.12 µg/mL, the MIC [3, 11] is given as 0.125 µg/mL (≈ 0.26 µM) and the MIC [4, 12] is given as 0.125 µg/mL (≈ 0.26 µM). For the same compound, the MIC ([5]; Janthinobacterium lividum, DB02473) was 0.125 µg/mL (≈ 0.26 µM).
For `O=C(N[C@H](CO)[C@H](O)c1ccc([N+](=O)[O-])cc1)C(Cl)Cl` [Chloramphenicol], the “sensitivity of Janthinobacterium lividum strains to antibiotic” value [1] is given as “less sensitive”, the “MIC, CLSI QC ranges” value [2] is given as 2 to 8 µg/mL and the “sensitivity of Janthinobacterium lividum to antibiotic disc” value [6] is given as “sensitive”.
`CCC[C@@H]1C[C@@H](C(=O)N[C@@H]([C@H]2O[C@H](SC)[C@H](O)[C@@H](O)[C@H]2O)[C@H](C)Cl)N(C)C1` [Clindamycin] showed an MIC ([7]; Escherichia coli, read-out: MIC) of over 64 µg/mL.
In the case of `OC[C@@H](O)[C@@H](O)[C@H](O)[C@H](O)CO` [D-Mannitol], the “improvement of growth of human-derived Janthinobacterium lividum” value [8] is reported as “improve the growth”.
Work on `C[C@H]1COc2c(N3CCN(C)CC3)c(F)cc3c(=O)c(C(=O)O)cn1c23` [Levofloxacin] yielded an MIC [3, 11] of 0.125 µg/mL (≈ 0.346 µM).
For `C[C@@H](O)[C@H]1C(=O)N2C(C(=O)O)=C(S[C@@H]3CN[C@H](C(=O)N(C)C)C3)[C@H](C)[C@H]12` [Meropenem], the “sensitivity of Janthinobacterium lividum strains to antibiotic” value [1] is given as “less sensitive” and the “MIC, CLSI QC ranges” value [2] is given as 0.008 to 0.06 µg/mL.
With `CN(C)c1ccc(O)c2c1C[C@H]1C[C@H]3[C@H](N(C)C)C(O)=C(C(N)=O)C(=O)[C@@]3(O)C(O)=C1C2=O` [Minocycline] the MIC ([9]; Janthinobacterium lividum, DB00118) was 0.125 µg/mL (≈ 0.273 µM) and the MIC [4, 12] was 0.125 µg/mL (≈ 0.273 µM).
For Amoxicillin clavulanate, the MIC [7] was 8 µg/mL, the “sensitivity of Janthinobacterium lividum strains to antibiotic” value [1] was “less sensitive” and the MIC ([3]; strain DB00121) was 0.5 µg/mL. For the same compound, the MIC ([9]; strain DB00118) was 1 µg/mL, the MIC ([4]; strain DB02378) was 1 µg/mL and the MIC ([5]; strain DB02473) was 1 µg/mL.
For Neomycin, the MIC [7] was 2 µg/mL, the MIC ([3]; strain DB00121) was 1 µg/mL and the MIC ([9]; strain DB00118) was 2 µg/mL. For the same compound, the MIC ([4]; strain DB02378) was 2 µg/mL and the MIC ([5]; strain DB02473) was 2 µg/mL.
With Tween 40 the “Concentration Range of Efficacy” value [10] was 2 to 20 mM and the “improvement of growth of human-derived Janthinobacterium lividum” value [8] was “improve the growth”.
